# Read-outs that look alike come from different tables or passages of the source.
# Key:
# [1] = tested on: carbapenem sensitive Escherichia coli; assay: MIC by broth micro-dilution (CLSI), carbapenem sensitive E. coli; type: cell-based
# [2] = tested on: carbapenemase producing K. pneumoniae; assay: MIC by broth micro-dilution (CLSI), carbapenemase producing K. pneumoniae; type: cell-based, Klebsiella pneumoniae
# [3] = tested on: methicillin-sensitive Staphylococcus aureus; assay: MIC by broth micro-dilution (CLSI), methicillin-sensitive S. aureus; type: cell-based; conditions: MSSA S. aureus ATCC29213
# [4] = tested on: carbapenem sensitive Pseudomonas aeruginosa; assay: MIC by broth micro-dilution (CLSI), carbapenem sensitive P. aeruginosa; type: cell-based
# [5] = Escherichia coli, ATCC25922, ESBL −ve E. coli ATCC25922, read-out: MIC
# [6] = Klebsiella pneumoniae, ATCCBAA1705, KPC-2 K. pneumoniae ATCC BAA-1705, read-out: MIC
# [7] = Staphylococcus aureus, ATCC 29213 / MSSA, read-out: MIC
# [8] = Pseudomonas aeruginosa, ATCC27853, Meropenem susceptible P. aeruginosa ATCC27853, read-out: MIC
# [9] = KPC-2 K. pneumoniae ATCC BAA-1705
# [10] = Meropenem susceptible P. aeruginosa ATCC27853
compound,measurement,setting,value
"C[C@@H](NC(=O)Cn1cnnn1)[C@H]1C(=O)N2C(C(=O)O)=C(S[C@@H]3CN[C@H](C(=O)N4CCC(N)C(F)C4)C3)[C@H](C)[C@H]12 (single isomer, unassigned) [Example 425]",MIC,[1]; [5],0.25 mg/L
same,MIC,[2]; [6],2 mg/L
same,MIC,[3]; [7],4 mg/L
same,MIC,[4]; [8],2 mg/L
"C[C@@H](NC(=O)Cn1cnnn1)[C@H]1C(=O)N2C(C(=O)O)=C(S[C@@H]3CN[C@H](C(=O)N4CCC5CNCCC54)C3)[C@H](C)[C@H]12 (single isomer, unassigned) [Example 438]",MIC,[1]; [5],0.25 mg/L
same,MIC,[2]; [6],1 mg/L
same,MIC,[3]; [7],2 mg/L
same,MIC,[4]; [8],2 mg/L
"C[C@@H](NC(=O)Cn1cnnn1)[C@H]1C(=O)N2C(C(=O)O)=C(S[C@@H]3CN[C@H](C(=O)N4CC5CCCNC5C4)C3)[C@H](C)[C@H]12 (single isomer, unassigned) [Example 452]",MIC,[1]; [5],0.25 mg/L
same,MIC,[2]; [6],1 mg/L
same,MIC,[3]; [7],2 mg/L
same,MIC,[4]; [8],2 mg/L
"C[C@@H](NC(=O)Cn1cnnn1)[C@H]1C(=O)N2C(C(=O)O)=C(S[C@@H]3CN[C@H](C(=O)N4CC5CCCNC5C4)C3)[C@H](C)[C@H]12 (single isomer, unassigned) [Example 459]",MIC,[1]; ESBL −ve E. coli ATCC25922,0.125 mg/L
same,MIC,[2]; [9],1 mg/L
same,MIC,[3],1 mg/L
same,MIC,[4]; [10],2 mg/L
"C[C@@H](NC(=O)Cn1cnnn1)[C@H]1C(=O)N2C(C(=O)O)=C(S[C@@H]3CN[C@H](C(=O)N4CCC5CNCC54)C3)[C@H](C)[C@H]12 (single isomer, unassigned) [Example 466]",MIC,[1]; [5],0.5 mg/L
same,MIC,[2]; [6],2 mg/L
same,MIC,[3]; [7],4 mg/L
same,MIC,[4]; [8],4 mg/L
"C[C@@H](NC(=O)Cn1cnnn1)[C@H]1C(=O)N2C(C(=O)O)=C(S[C@@H]3CN[C@H](C(=O)N4CCC5CNCC54)C3)[C@H](C)[C@H]12 (single isomer, unassigned) [Example 467]",MIC,[1]; ESBL −ve E. coli ATCC25922,1 mg/L
same,MIC,[2]; [9],2 mg/L
same,MIC,[3],8 mg/L
same,MIC,[4]; [10],8 mg/L
"C[C@@H](NC(=O)Cn1cnnn1)[C@H]1C(=O)N2C(C(=O)O)=C(S[C@@H]3CN[C@H](C(=O)N4CCC5NCCCC54)C3)[C@H](C)[C@H]12 (single isomer, unassigned) [Example 468]",MIC,[1]; [5],0.5 mg/L
same,MIC,[2]; [6],2 mg/L
same,MIC,[3]; [7],4 mg/L
same,MIC,[4]; [8],8 mg/L
"C[C@@H](NC(=O)Cn1cnnn1)[C@H]1C(=O)N2C(C(=O)O)=C(S[C@@H]3CN[C@H](C(=O)N4CCC5NCCCC54)C3)[C@H](C)[C@H]12 (single isomer, unassigned) [Example 469]",MIC,[1]; ESBL −ve E. coli ATCC25922,0.5 mg/L
same,MIC,[2]; [9],2 mg/L
same,MIC,[3],4 mg/L
same,MIC,[4]; [10],4 mg/L
"C[C@@H](NC(=O)Cn1cnnn1)[C@H]1C(=O)N2C(C(=O)O)=C(S[C@@H]3CN[C@H](C(=O)N4CC(N)C(F)C4)C3)[C@H](C)[C@H]12 (single isomer, unassigned) [Example 478]",MIC,[1]; [5],0.125 mg/L
same,MIC,[2]; [6],1 mg/L
same,MIC,[3]; [7],8 mg/L
same,MIC,[4]; [8],8 mg/L
"C[C@@H](NC(=O)Cn1cnnn1)[C@H]1C(=O)N2C(C(=O)O)=C(S[C@@H]3CN[C@H](C(=O)N4CC(N)C(F)C4)C3)[C@H](C)[C@H]12 (single isomer, unassigned) [Example 479]",MIC,[1]; ESBL −ve E. coli ATCC25922,0.25 mg/L
same,MIC,[2]; [9],2 mg/L
same,MIC,[3],8 mg/L
same,MIC,[4]; [10],16 mg/L
"C[C@@H](NC(=O)Cn1cnnn1)[C@H]1C(=O)N2C(C(=O)O)=C(S[C@@H]3CN[C@H](C(=O)N4CCC5NCCCC5C4)C3)[C@H](C)[C@H]12 (single isomer, unassigned) [Example 482]",MIC,[1]; [5],0.25 mg/L
same,MIC,[2]; [6],4 mg/L
same,MIC,[3]; [7],4 mg/L
same,MIC,[4]; [8],4 mg/L
"C[C@@H](NC(=O)Cn1cnnn1)[C@H]1C(=O)N2C(C(=O)O)=C(S[C@@H]3CN[C@H](C(=O)N4CCC5(CCNC5)C4)C3)[C@H](C)[C@H]12 (single isomer, unassigned) [Example 488]",MIC,[1]; [5],0.25 mg/L
same,MIC,[2]; [6],1 mg/L
same,MIC,[3]; [7],4 mg/L
same,MIC,[4]; [10],2 mg/L
"CNCC(=O)N[C@H](C)[C@H]1C(=O)N2C(C(=O)O)=C(S[C@@H]3CN[C@H](C(=O)N4CCC5CNCCC54)C3)[C@H](C)[C@H]12 (single isomer, unassigned) [Example 490]",MIC,[1]; [5],2 mg/L
same,MIC,[2]; [6],2 mg/L
same,MIC,[3]; [7],32 mg/L
same,MIC,[4]; [8],32 mg/L
"C[C@@H](NC(=O)Cn1cnnn1)[C@H]1C(=O)N2C(C(=O)O)=C(S[C@@H]3CN[C@H](C(=O)N4CCC5(CCNC5)C4)C3)[C@H](C)[C@H]12 (single isomer, unassigned) [Example 493]",MIC,[1]; ESBL −ve E. coli ATCC25922,0.125 mg/L
same,MIC,[2]; [9],1 mg/L
same,MIC,[3],2 mg/L
same,MIC,[4]; [10],0.5 mg/L
"C[C@@H](NC(=O)Cn1cnnn1)[C@H]1C(=O)N2C(C(=O)O)=C(S[C@@H]3CN[C@H](C(=O)N4CCC(N)(CO)C4)C3)[C@H](C)[C@H]12 (single isomer, unassigned) [Example 496]",MIC,[1]; [5],0.25 mg/L
same,MIC,[2]; [6],2 mg/L
same,MIC,[3]; [7],2 mg/L
same,MIC,[4]; [8],2 mg/L
"C[C@@H](NC(=O)Cn1cnnn1)[C@H]1C(=O)N2C(C(=O)O)=C(S[C@@H]3CN[C@H](C(=O)N4CCC(N)(CO)C4)C3)[C@H](C)[C@H]12 (single isomer, unassigned) [Example 497]",MIC,[1]; ESBL −ve E. coli ATCC25922,0.25 mg/L
same,MIC,[2]; [9],2 mg/L
same,MIC,[3],4 mg/L
same,MIC,[4]; [10],4 mg/L
"C[C@@H](NC(=O)Cn1cnnn1)[C@H]1C(=O)N2C(C(=O)O)=C(S[C@@H]3CN[C@H](C(=O)N4CCCC45CCCNC5)C3)[C@H](C)[C@H]12 (single isomer, unassigned) [Example 504]",MIC,[1]; ESBL −ve E. coli ATCC25922,0.5 mg/L
same,MIC,[2]; [9],4 mg/L
same,MIC,[3],2 mg/L
same,MIC,[4]; [10],32 mg/L
"C[C@@H](NC(=O)Cn1cnnn1)[C@H]1C(=O)N2C(C(=O)O)=C(S[C@@H]3CN[C@H](C(=O)N4CC(O)C(CN)C4)C3)[C@H](C)[C@H]12 (single isomer, unassigned) [Example 510]",MIC,[1]; [5],0.25 mg/L
same,MIC,[2]; [6],4 mg/L
same,MIC,[3]; [7],4 mg/L
same,MIC,[4]; [8],1 mg/L
"C[C@@H](NC(=O)Cn1cnnn1)[C@H]1C(=O)N2C(C(=O)O)=C(S[C@@H]3CN[C@H](C(=O)N4CC(O)C(CN)C4)C3)[C@H](C)[C@H]12 (single isomer, unassigned) [Example 511]",MIC,[1]; ESBL −ve E. coli ATCC25922,0.25 mg/L
same,MIC,[2]; [9],2 mg/L
same,MIC,[3],4 mg/L
same,MIC,[4]; [10],1 mg/L
"C[C@@H](NC(=O)CN1CCC2CNCCC21)[C@H]1C(=O)N2C(C(=O)O)=C(S[C@@H]3CN[C@H](C(=O)N(C)C)C3)[C@H](C)[C@H]12 (single isomer, unassigned) [Example 519]",MIC,[1]; [5],2 mg/L
same,MIC,[2]; [6],16 mg/L
same,MIC,[3]; [7],16 mg/L
same,MIC,[4]; [8],> 128 mg/L
"C[C@@H](NC(=O)Cn1cnnn1)[C@H]1C(=O)N2C(C(=O)O)=C(S[C@@H]3CN[C@H](C(=O)N4CCC5CN(C[C@@H](O)CN)CCC54)C3)[C@H](C)[C@H]12 (single isomer, unassigned) [Example 521]",MIC,[1]; [5],0.5 mg/L
same,MIC,[2]; [9],0.5 mg/L
same,MIC,[3]; [7],2 mg/L
same,MIC,[4]; [8],2 mg/L
"C[C@@H](NC(=O)Cn1cnnn1)[C@H]1C(=O)N2C(C(=O)O)=C(S[C@@H]3CN[C@H](C(=O)N4CC5CCNCC5C4)C3)[C@H](C)[C@H]12 (single isomer, unassigned) [Example 527]",MIC,[1]; [5],0.125 mg/L
same,MIC,[2]; [6],1 mg/L
same,MIC,[3]; [7],4 mg/L
same,MIC,[4]; [8],1 mg/L
"C[C@@H](NC(=O)Cn1cnnn1)[C@H]1C(=O)N2C(C(=O)O)=C(S[C@@H]3CN[C@H](C(=O)N4CC5CCNCC5C4)C3)[C@H](C)[C@H]12 (single isomer, unassigned) [Example 528]",MIC,[1]; ESBL −ve E. coli ATCC25922,0.25 mg/L
same,MIC,[2]; [9],1 mg/L
same,MIC,[3],4 mg/L
same,MIC,[4]; [10],1 mg/L
"C[C@@H](NC(=O)Cn1cnnn1)[C@H]1C(=O)N2C(C(=O)O)=C(S[C@@H]3CN[C@H](C(=O)N4CC5(CC(N)CO5)C4)C3)[C@H](C)[C@H]12 (single isomer, unassigned) [Example 530]",MIC,[1]; [5],0.25 mg/L
same,MIC,[2]; [6],1 mg/L
same,MIC,[3]; [7],2 mg/L
same,MIC,[4]; [8],0.5 mg/L
"C[C@@H](NC(=O)Cn1cnnn1)[C@H]1C(=O)N2C(C(=O)O)=C(S[C@@H]3CN[C@H](C(=O)N4CC5CC(CO)NC5C4)C3)[C@H](C)[C@H]12 (single isomer, unassigned) [Example 552]",MIC,[1]; ESBL −ve E. coli ATCC25922,0.25 mg/L
same,MIC,[2]; [9],2 mg/L
same,MIC,[3],4 mg/L
"C[C@@H](NC(=O)Cn1cnnn1)[C@H]1C(=O)N2C(C(=O)O)=C(S[C@@H]3CN[C@H](C(=O)N4CCOC(CN)C4)C3)[C@H](C)[C@H]12 (stereo in doubt) [Example 461, (4R,5S,6R)-6-((R)-1-(2-(1H-tetrazol-1-yl)acetamido)ethyl)-3-((3S,5S)-5-((S)-2-(aminomethyl)morpholine-4-carbonyl)pyrrolidin-3-ylthio)-4-methyl-7-oxo-1-azabicyclo[3.2.0]hept-2-ene-2-carboxylic acid]",MIC,[1]; ESBL −ve E. coli ATCC25922,0.5 mg/L
same,MIC,[2]; [9],2 mg/L
same,MIC,[3],4 mg/L
"C[C@@H](NS(C)(=O)=O)[C@H]1C(=O)N2C(C(=O)O)=C(S[C@@H]3CN[C@H](C(=O)N(C)C)C3)[C@H](C)[C@H]12 [Example 1, (4R,5S,6S)-3-((3S,5S)-5-(Dimethylcarbamoyl)pyrrolidin-3-ylthio)-4-methyl-6-((R)-1-(methylsulfonamido)ethyl)-7-oxo-1-azabicyclo[3.2.0]hept-2-ene-2-carboxylic acid]",MIC,[1]; [5],0.25 to 1 mg/L
same,MIC,[3]; [7],8 to 16 mg/L
same,MIC,[4]; [8],32 to 64 mg/L

# Reference: patent publication US11180504B2 (ORCHID PHARMA LTD., priority 2016, dated 2021)
